The values below come from patent US20220195059A1, “Rank Pathway Inhibitors in Combination with CDK Inhibitors” (INSTITUTO DE MEDICINA MOLECULAR JOÃO LOBO ANTUNES, priority 2019, published 2022).

Holding throughout (type): cell-based, human
For test [1], the system named is RANK OE cells (MCF-7^OE, T47D^OE) and parental MCF-7, T47D cells. Put plainly: Alamar blue viability assay, RANK OE luminal breast cancer cells vs parental counterparts. Conditions: for sensitivity of RANK OE cells to the drug (cell viability): RANK OE cells vs parental counterparts, drug alone. On the procedure: (§1) Cells were seeded in 96 well-plates (2-5×10^4 cells/mL), with or without paclitaxel (Y0000698, Sigma), doxorubicin hydrochloride (D2975000, Sigma), palbociclib (PD 0332991 isethionate, PZ0199, Sigma), ribociclib (LEE011 succinate, SC-488174, Santa Cruz), abemaciclib mesylate (LY2835219, S7158, Selleckchem), fulvestrant (S1191, Selleckchem), everolimus (#73122, StemCell Technologies), full length human OPG (SRP3132, Sigma), and OPG-Fc (Amgen). Medium was replaced every 2 days. After 7 days, 1:10 Alamar blue (Invitrogen) was added to each well and fluorescence was measured 2 hours after incubation (excitation 560 nm; emission 590 nm) in an Infinite M200 microplate reader (Tecan).
In particular, RANK OE cells were tested for responsiveness to hormone therapy. Briefly, RANK OE cells were seeded in multi-well plates and exposed to fulvestrant for 7 days.
In this assay, however, RANK OE cells were exposed to a CDK 4/6 inhibitor alone or in combination with an inhibitor of the RANK pathway, in order to test the effect of blocking the RANK pathway in this context. Briefly, RANK OE cells were seeded in multi-well plates and exposed to palbociclib, ribociclib or abemaciclib alone or in combination with OPG-Fc for 7 days. Osteoprotegrin (OPG) is the physiologic soluble decoy receptor for RANK ligand (RANKL), and OPG-Fc is a fusion protein comprising only the four cysteine-rich domains of OPG (D1 to D4) fused with the Fc domain of an IgG1 antibody.
In this study, the CDK4/6 inhibitors palbociclib and ribociclib were exposed to RANK OE cells in combination with fulvestrant or everolimus. This combination therapy was then tested alone or in combination with OPG, an inhibitor of the RANK pathway. In this assay, the full-length OPG protein was used, in contrast to the previous example utilizing OPG-Fc.
To address this question, cell growth in the presence or absence of a CDK4 inhibitor was quantified. Briefly, cells were seeded in 96-well plates and exposed to two different drugs, CDK4 inhibitors, 3-ATA (FIG. 20A) or Cdk4 inhibitor Ill (FIG. 20B) for seven days. Medium was replaced every two days, and viability was assessed by Alamar blue assay. FIG. 20A provides the cell growth quantification in the presence of the CDK4 inhibitor 3-ATA and FIG. 20B provides the cell growth quantification in the presence of another CDK4 inhibitor, Cdk4 Inhibitor Ill. The results are the mean of at least three independent assays, with 4 replicates per assay, and presented as the mean±SEM. p-value was calculated using 2-way ANOVA, *p<0.05, **p<0.01, ***p<0.001.
To answer this question, cell growth in the presence of the pan-CDK inhibitor seliciclib (also known as roscovitine or CYC202) was analyzed. Briefly, cells were seeded in 96-well plates and exposed to different drugs for seven days. Medium was replaced every two days, and viability was assessed by Alamar blue assay.
(§2) Cells were seeded in 96 well-plates (2-5×10^4 cells/mL), with or without palbociclib (PD 0332991 isethionate, PZ0199, Sigma), ribociclib (LEE011 succinate, SC-488174, Santa Cruz), abemaciclib mesylate (LY2835219, S7158, Selleckchem), 3-ATA (sc-202414, Santa Cruz), Cdk4 inhibitor Ill (sc-202988, Santa Cruz), seliciclib (S1153, Selleckchem), and OPG-Fc (PL-33324, Amgen). Medium was replaced every 2 days. After 7 days, 1:10 Alamar blue (Invitrogen) was added to each well and fluorescence was measured 2 hours after incubation (excitation 560 nm; emission 590 nm) in an Infinite M200 microplate reader (Tecan).

The next test relates to MDA-MB-231 TNBC cells. The experiment in a line: Alamar blue viability assay, MDA-MB-231 TNBC cells with or without RANK knockdown. The following applies: 7 days. Here is the method:
For lentiviral transduction, MDA-MB-231GFP+Luc+ cells were seeded in 24-well plates, at a density of 4×10^4 cells/well. 24 hours after seeding, medium was replaced by fresh medium containing 8 μg/ml Polybrene (Sigma) and RANK shRNA (h) lentiviral particles (15-20 μl/well; sc-42960-V, Santa Cruz) or control shRNA lentiviral particles (15-20 μl/well; sc-108080, Santa Cruz). Cells were selected with 0.5 μg/mL Puromycin dihydrochloride (Sigma) starting three days after transduction.
as §1
RANK KD clones were first generated for use in sensitivity assays. Briefly, MCF-7GFP+Luc+ cells were seeded in multi-well plates and then exposed to fresh medium comprising RANK shRNA (h) lentiviral particles or control shRNA lentiviral particles. The transduced cells were selected using Puromycin dihydrochloride starting three days post-transduction.
(The colour change of resazurin is a common sign of viable cells or microbes.)

In test [2] the test system is TNBC cells (MDA-MB-231, MDA-MB-436, MDA-MB-468, MDA-MB-157, HCC1937, BT-20). Put plainly: Alamar blue viability assay, TNBC cell lines with or without OPG-Fc. Conditions: 7 days. Here is the method:
as §1
Medium was replaced every two days, and viability was assessed by Alamar blue assay.
as §2

For the molecule `CC[C@H](CO)Nc1nc(NCc2ccccc2)c2ncn(C(C)C)c2n1` [seliciclib], the “sensitivity of RANK OE cells to pan-CDK inhibitor” value in test [1] (RANK OE cells vs parental (RANK low) cells, 7 days) is listed as “less sensitive”. Also, in test [1] (RANK OE cells, 7 days), the “enhancement of the effect of palbociclib, or palbociclib plus OPG-Fc” value is recorded as “did not enhance”. Consider `C[C@]12CC[C@@H]3c4ccc(O)cc4C[C@@H](CCCCCCCCC[S+]([O-])CCCC(F)(F)C(F)(F)F)[C@H]3[C@@H]1CC[C@@H]2O` (stereo partly shown) [fulvestrant], for which, in test [1] (7 days), the “sensitivity of RANK OE cells to the drug (cell viability)” value is “decreased sensitivity”. Consider `CN(C)C(=O)c1cc2cnc(Nc3ccc(N4CCNCC4)cn3)nc2n1C1CCCC1` [ribociclib], for which, in test [1] (7 days), the “sensitivity of RANK OE cells to the drug (cell viability)” value is “decreased sensitivity”. For the same molecule, the “sensitivity to CDK4/6 inhibitor (cell viability)” value was “resistance” in the test on MDA-MB-231 TNBC cells (MDA-231 cells and MDA-231 shControl cells); “restored sensitivity” in the test on MDA-MB-231 TNBC cells (TNBC RANK KD cells (MDA-231 shRANK) vs RANK expressing cells). In test [2], the “sensitivity of TNBC cells to CDK4/6 inhibitor (cell viability)” value is “resistance”. Turning to `CCN1CCN(Cc2ccc(Nc3ncc(F)c(-c4cc(F)c5nc(C)n(C(C)C)c5c4)n3)nc2)CC1` [abemaciclib], the “sensitivity of RANK OE cells to the drug (cell viability)” value in test [1] (7 days) is on record as “decreased sensitivity”. Moreover, in test [2], the “sensitivity of TNBC cells to CDK4/6 inhibitor (cell viability)” value is reported as “resistance”.

Regarding `Cc1ccc(NC2=CC(=O)c3sc(C)nc3C2=O)cc1` [Cdk4 inhibitor Ill, 5-(N-(4-Methylphenyl)amino)-2-methyl-4,7-dioxobenzothiazole], in test [1] (7 days), the “sensitivity of RANK OE cells to the drug (cell viability)” value is reported as “resistant”. `Nc1ccc2c(=S)c3ccccc3[nH]c2c1` [3-ATA, 3-Amino-9-thio(10H)-acridone]: the “sensitivity of RANK OE cells to the drug (cell viability)” value in test [1] (7 days) is reported as “resistant”. Further, the “resistance of RANK OE cells to doses above 2.5 μM” value in test [1] (RANK OE cells, 7 days) is on record as “resistant to even higher doses”.

B1: OPG: full-length OPG protein, soluble decoy receptor for RANK ligand (protein, UniProt O00300 1-401, looked up)
chain: MNNLLCCALVFLDISIKWTTQETFPPKYLHYDEETSHQLLCDKCPPGTYLKQHCTAKWKTVCAPCPDHYYTDSWHTSDECLYCSPVCKELQYVKQECNRTHNRVCECKEGRYLEIEFCLKHRSCPPGFGVVQAGTPERNTVCKRCPDGFFSNETSSKAPCRKHTNCSVFGLLLTQKGNATHDNICSGNSESTQKCGIDVTLCEEAFFRFAVPTKFTPNWLSVLVDNLPGTKVNAESVERIKRQHSSQEQTFQLLKLWKHQNKDQDIVKKIIQDIDLCENSVQRHIGHANLTFEQLRSLMESLPGKKVGAEDIEKTIKACKPSDQILKLLSLWRIKNGDQDTLKGLMHALKHSKTYHFPKTVTQSLKKTIRFLHSFTMYKLYQKLFLEMIGNQVQSVKISCL
modifications: full-length
notes: full-length OPG protein, soluble decoy receptor for RANK ligand
As for B1, in test [1] (full-length OPG added to palbociclib or ribociclib plus fulvestrant or everolimus), the “sensitivity of RANK OE cells to CDK4/6 inhibitor combination therapy when further combined with OPG” value is “restored”.
